Assay results: ChEMBL document CHEMBL2150877, “γ-Secretase modulators as potential disease modifying anti-Alzheimer's drugs” (J Med Chem, 2011)

Assay: Inhibition of gamma secretase assessed as reduction in Abeta42 production

`COc1cc(-c2cn(C3CCc4c(F)cccc4N(CC(F)(F)F)C3=O)nn2)ccc1Nc1cccnc1` (centres undefined) gave an IC50 of 226 nM.
For `COc1cc(C)c(Nc2nc(-c3ccc(-n4cnc(C)c4)c(OC)n3)n[nH]2)cc1C(C)C`, the IC50 was 8 nM.
`COc1cc(/C=C2\CCCN([C@H](c3cc(F)c(F)c(F)c3)[C@@H](C)O)C2=O)ccc1-n1cnc(C)n1` gave an IC50 of 60 nM.
For `CC(C)c1cc(C(C)C)c(S(=O)(=O)n2c3ccccc3c3ccc(OCC(=O)O)cc32)c(C(C)C)c1`, the IC50 was 7500 nM.
With `CC(C)CCN(Cc1ccc(C(F)(F)F)cc1)Cc1cc(-c2ccc(C(F)(F)F)cc2)cc(C(CC(C)C)C(=O)O)c1` (centres undefined) the IC50 was 220 nM.
In the case of `COc1cc(/C=C/C(=O)NCc2cccc(-c3ccccc3)c2)ccc1-n1cnc(C)c1`, the IC50 is reported as 70 nM.
In the case of `Cc1cn(-c2ccc(/C=C3\OC(C)(C)CN([C@H](c4cc(F)c(F)c(F)c4)[C@@H](C)O)C3=O)cc2F)cn1`, the IC50 is reported as 41 nM.
For `COc1cc(-c2cn(CC(=O)N(CC(F)(F)F)c3ccc(F)c(Cl)c3)nn2)ccc1-n1cnc(C)c1`, the IC50 was 84 nM.
In the case of `COc1cc(/C=C2\OC(C)(C)CN([C@H](c3cc(F)c(F)c(F)c3)[C@@H](C)O)C2=O)ccc1-n1cnc(C)c1`, the IC50 is reported as 5 nM.
`COc1cc(/C=C2\OC(C)(C)CN([C@@H](C)c3ccc(F)cc3)C2=O)ccc1-n1cnc(C)c1` showed an IC50 of 76 nM.
`COc1cc(/C=C2\CCCn3c(-c4ccc(F)cc4)cnc32)ccc1-n1cnc(C)c1` showed an IC50 of 170 nM.
For `COc1cc(Nc2ncn(Cc3cccc(Cl)c3)n2)ccc1-n1cnc(C)c1`, the IC50 was 130 nM.
With `COc1cc(C2CC23CCCN(C(C)c2ccc(F)cc2)C3=O)ccc1-n1cnc(C)c1` (centres undefined) the IC50 was greater than 200 nM.
`CC(C)CCN1C(c2cc(-c3ccc(C(F)(F)F)cc3)cc(C(CC(C)C)C(=O)O)c2)CCCC1C(F)(F)F` (centres undefined) gave an IC50 of 110 nM.
`COc1nc(/C=C/c2nc3n(n2)CCC[C@@H]3c2cc(F)c(F)c(F)c2)ccc1-n1cnc(C)c1` gave an IC50 of 22 nM.
`COc1cc(C2=NOC3(CCCN(C(C)c4ccc(F)cc4)C3=O)C2)ccc1-n1cnc(C)c1` (centres undefined) gave an IC50 greater than 200 nM.
Compound `COc1ccccc1NC(=O)Nc1ccc(-c2ccnc(C)c2)c(OC)c1` has an IC50 of 3300 nM.
Work on `COc1nc(/C=C/c2nc3n(n2)CCC[C@@H]3c2ccc(F)cc2)ccc1-n1cnc(C)c1` yielded an IC50 of 37 nM.
For `CC(C)CC(C(=O)O)c1cc(-c2ccc(C(F)(F)F)cc2)cc(-c2cc(C(F)(F)F)cc(C(F)(F)F)c2)c1` (racemic), the IC50 was 80 nM.
`COc1cc(NC(=O)C(C)c2ccc3c(c2)[nH]c2ccc(Cl)cc23)ccc1-c1ccnc(C)c1` (centres undefined) gave an IC50 of 108 nM.
Compound `CC(C)CC[C@H](c1ccc(C(F)(F)F)cc1)N1CC[C@@H](CC(=O)O)C(F)(F)[C@H]1c1ccc(C(F)(F)F)cc1` has an IC50 of 710 nM.
In the case of `Cc1cn(-c2ccc(Nc3ncc4c(n3)C(c3ccccc3)CCC4)cc2F)cn1` (centres undefined), the IC50 is reported as 130 nM.
With `COc1cc(/C=C/c2nnc(C(C)c3ccc(F)cc3)[nH]2)ccc1-n1cnc(C)c1` (centres undefined) the IC50 was 33 nM.
Compound `Cc1cn(-c2ccc(Nc3ncn(Cc4cccc(Cl)c4)n3)cc2C#N)cn1` has an IC50 of 220 nM.
In the case of `CC(C)CC(C(=O)O)c1cc(/C=C/c2ccc(-c3ccccc3)cc2)cc(-c2ccc(Cl)c(C(F)(F)F)c2)c1` (centres undefined), the IC50 is reported as 150 nM.
Compound `COc1cc(/C=C/c2nc3n(n2)CCC[C@@H]3c2ccccc2)ccc1-n1cnc(C)c1` has an IC50 of 11 nM.
`COc1cc(Nc2c(OC)cnn(C(C)c3ccccc3)c2=O)ccc1-n1cnc(C)c1` (centres undefined) showed an IC50 of 3100 nM.
Work on `COCCN(Cc1cccc2ccccc12)C(=O)/C=C/c1ccc(-n2cnc(C)c2)c(OC)c1` yielded an IC50 of 60 nM.
For `COc1cc(-c2cn(C(F)(F)c3ccc(C(F)(F)F)cc3)nn2)ccc1-n1cnc(C)c1`, the IC50 was 2240 nM.
`CCCC1CCCCN1c1cc(-c2ccc(C(F)(F)F)cc2)cc(C(CC(C)C)C(=O)O)c1` (centres undefined) gave an IC50 of 430 nM.
Compound `COc1cc(Nc2cccc3c2nc(-c2ccc(F)cc2)n3C(C)C)ccc1-c1ccnc(C)c1` has an IC50 of 39 nM.
Work on `CC(C)CC(C(=O)O)c1cc(/C=C/c2cc(F)cc(F)c2)cc(-c2ccc(C(F)(F)F)cc2)c1` (centres undefined) yielded an IC50 of 450 nM.
Work on `COc1cc(Nc2nc(C)cc(Oc3ccc(Cl)cc3)n2)ccc1-n1cnc(C)c1` yielded an IC50 of 380 nM.
Compound `COc1nc(-c2nc3n(n2)CCC[C@@H]3c2cc(N(CC3CC3)CC(F)(F)F)ccc2Cl)ccc1-n1cnc(C)c1` has an IC50 of 6 nM.
Compound `COc1cc(-c2cn(C3CCc4ccccc4N(CC(F)(F)F)C3=O)nn2)ccc1-c1ccncc1` (centres undefined) has an IC50 of 80 nM.
Compound `COc1cc(NC(=O)C(C)c2cccc(F)n2)ccc1-c1ccnc(C)c1` (centres undefined) has an IC50 of 557 nM.
`COc1nc(/C=C/c2nc3n(n2)CCC[C@H]3c2ccccc2C(F)(F)F)ccc1-n1cnc(C)c1` [E-2212] showed an IC50 of 17 nM.
In the case of `COc1cc(/C=C/c2nc(-c3ccccc3)c[nH]2)ccc1-n1cnc(C)c1`, the IC50 is reported as 76 nM.
Compound `CC(C)CC(C(=O)O)c1cc(-c2ccc(C(F)(F)F)cc2)cc(C2CCC(C(F)(F)F)N(c3cc(F)cc(C(F)(F)F)c3)C2)c1` (centres undefined) has an IC50 of 310 nM.
With `CC(C)CCN(Cc1cc(-c2ccc(C(F)(F)F)cc2)cc(C(CC(C)C)C(=O)O)c1)Cc1ccc(F)c(F)c1` (centres undefined) the IC50 was 65 nM.
For `COc1cc(/C=C/C(=O)NC2CCc3ccccc3C2)ccc1-n1cnc(C)c1` (centres undefined), the IC50 was 60 nM.
For `COc1cc(Nc2nc3n(n2)CC[C@@](C)(O)C[C@@H]3c2ccc(F)cc2)ccc1-n1cnc(Cl)c1`, the IC50 was 2 nM.
`CC(C)CCN(Cc1cc(-c2ccc(C(F)(F)F)cc2)cc(C(CC(C)C)C(=O)O)c1)c1ccc(C(F)(F)F)cc1` (centres undefined) gave an IC50 of 250 nM.
`COc1cc(Nc2nc3n(n2)CCCC[C@H]3c2ccc(OCC(F)(F)F)cc2)ccc1-n1cnc(Cl)c1` showed an IC50 of 5 nM.
With `COc1cc(/C=C2\CCCN(Cc3cccc(F)c3)C2=O)ccc1-n1cnc(C)c1` the IC50 was 200 nM.
`CC(C)CC(C(=O)O)c1cc(Cc2cc(F)cc(F)c2)cc(-c2ccc(C(F)(F)F)cc2)c1` (centres undefined) showed an IC50 of 740 nM.
For `CC(C)CC(C(=O)O)c1cc(CCc2cc(F)cc(F)c2)cc(-c2ccc(C(F)(F)F)cc2)c1` (centres undefined), the IC50 was 410 nM.
In the case of `COc1cc(C(=O)c2c(OC)cnn(C(C)c3ccccc3)c2=O)ccc1-n1cnc(C)c1` (centres undefined), the IC50 is reported as 2500 nM.
Compound `CC(C)CC(C(=O)O)c1cc(Cl)c(OCC2CC2)c(-c2ccc3nonc3c2)c1` (centres undefined) has an IC50 of 274 nM.
`COc1cc(C(O)c2c(OC)cnn([C@@H](C)c3ccc(F)cc3)c2=O)ccc1-n1cnc(C)c1` (some centres undefined) gave an IC50 of 7100 nM.
`CC(C)CC(C(=O)O)c1cc(-c2ccc(C(F)(F)F)cc2)cc(C2CCCC(C(F)(F)F)N2C)c1` (centres undefined) showed an IC50 of 420 nM.
Work on `COc1cc(/C=C/c2nc3n(n2)CCC[C@H]3c2ccccc2C(F)(F)F)ccc1-n1cnc(C)c1` yielded an IC50 of 11 nM.
With `COc1cc(Nc2ccnn(Cc3ccc(F)cc3)c2=O)ccc1-n1cnc(C)c1` the IC50 was 345 nM.
Compound `CC(C)CC(C(=O)O)c1cc(Oc2cc(F)cc(F)c2)cc(-c2ccc(C(F)(F)F)cc2)c1` (centres undefined) has an IC50 of 770 nM.
Compound `CC(C)CC(C(=O)O)c1cc(-c2ccc(C(F)(F)F)cc2)cc(N2CCC(C(F)(F)F)CC2)c1` (centres undefined) has an IC50 of 440 nM.
With `COc1cc(/C=C2\OC(C)(C)CN([C@@H](CO)c3ccc(F)cc3)C2=O)ccc1-n1cnc(C)c1` the IC50 was 16 nM.
With `COc1cc(NC(=O)C(C)N2CCc3ccc(Br)cc3C2)ccc1-c1ccnc(C)c1` (centres undefined) the IC50 was 181 nM.
`COc1cc(Nc2nc(C)cc(Nc3ccc(Cl)cc3)n2)ccc1-n1cnc(C)c1` showed an IC50 of 70 nM.
`COc1cc(Nc2cccc3c2nc(-c2ccc(F)cc2)n3C)ccc1-n1cnc(C)c1` showed an IC50 of 21 nM.
`CCC[C@H](C(=O)O)c1cc(OCc2ccccc2)cc(-c2ccc(C(F)(F)F)cc2)c1` showed an IC50 of 2500 nM.
`COc1cc(/C=C2\OC[C@@H]3CCC[C@H](c4ccc(F)cc4)N3C2=O)ccc1-n1cnc(C)c1` showed an IC50 of 201 nM.
With `CSc1ccc(/C=C2/C(C)=C(CC(=O)O)c3cc(F)ccc32)cc1` [SULINDAC SULFIDE] the IC50 was 34000 nM.
`COc1cc(Nc2nc(Cc3ccc(Cl)cc3)c(CO)s2)ccc1-n1cnc(C)c1` showed an IC50 of 340 nM.
`CC(C)CC(C(=O)O)c1cc(-c2ccc(C(F)(F)F)cc2)cc(C2CCCC(C(F)(F)F)N2Cc2ccc(C(F)(F)F)cc2)c1` (centres undefined) showed an IC50 of 310 nM.
`COc1cc(Nc2ncc3c(n2)C(c2ccccc2)CCC3)ccc1-n1cnc(C)c1` (centres undefined) gave an IC50 of 840 nM.
`COc1cc(-c2cn(C3CCc4c(F)cccc4N(CC(F)(F)F)C3=O)nn2)ccc1Oc1cccnc1` (centres undefined) showed an IC50 of 537 nM.
Work on `COc1cc(/C=C2\CC[C@H]3CCC[C@@H](c4cc(F)c(F)c(F)c4)N3C2=O)ccc1-n1cnc(C)c1` yielded an IC50 of 33 nM.
For `CC(C)CC(C(=O)O)c1cc(C#N)c(OCC2CC2)c(-c2ccc(C(F)(F)F)cc2)c1` (centres undefined), the IC50 was 275 nM.
For `COc1cc(NC(=O)Nc2cc(Cl)ccc2C)ccc1-c1ccnc(C)c1`, the IC50 was 670 nM.
`COc1cc(-c2cn(C3CCc4c(F)cccc4N(CC(F)(F)F)C3=O)nn2)ccc1C#Cc1ccnc(C)c1` (centres undefined) gave an IC50 of 83 nM.
For `CC(C)CC(C(=O)O)c1cc(Cl)c(OCC2CC2)c(-c2ccc(C(F)(F)F)cc2)c1` (centres undefined), the IC50 was 69 nM.
For `COc1cc(/C=C/c2nc3n(n2)CCC[C@@H]3c2ccc(F)cc2)ccc1-n1cnc(C)c1`, the IC50 was 14 nM.
Compound `COc1cc(Nc2nc3c(s2)CCCC3c2ccccc2)ccc1-n1cnc(C)c1` (centres undefined) has an IC50 of 40 nM.
`COc1cc(/C=C/c2nc3n(n2)CCC[C@@H]3c2cccc(F)c2)ccc1-n1cnc(C)c1` gave an IC50 of 28 nM.
For `CC(C(=O)O)c1ccc(-c2ccccc2)c(F)c1` (racemic) [FLURBIPROFEN], the IC50 was 300000 nM.
With `COc1cc(Nc2ncc3c(n2)C(c2ccccc2)CCC3)ccc1-c1cnn(C)c1` (centres undefined) the IC50 was 240 nM.
Work on `COc1cc(C)c(Cc2nc(-c3ccc(-n4cnc(C)c4)c(OC)n3)n[nH]2)cc1C(C)C` yielded an IC50 of 11 nM.
Compound `COc1cc(Nc2nc(C)c(Cc3cccc(Cl)c3)s2)ccc1-n1cnc(C)c1` has an IC50 of 210 nM.
Compound `CC(C)CC(C(=O)O)c1cc(CCc2ccc(-c3ccccc3)cc2)cc(-c2ccc(Cl)c(C(F)(F)F)c2)c1` (centres undefined) has an IC50 of 210 nM.
Work on `COc1cc(-c2cn([C@@H]3CCc4c(C)cc(C)cc4N(CC(F)(F)F)C3=O)nn2)ccc1-n1cnc(C)c1` yielded an IC50 of 21 nM.
`CC(C(=O)O)c1ccc2c(c1)[nH]c1ccc(Cl)cc12` (centres undefined) [CARPROFEN] gave an IC50 of 76000 nM.
`COc1cc(C2CN(C(C)=O)CC3(CCCN(C(C)c4ccc(F)cc4)C3=O)C2)ccc1-n1cnc(C)c1` (centres undefined) gave an IC50 greater than 200 nM.
Compound `COCc1cc(F)ccc1[C@H]1CCCn2nc(/C=C/c3ccc(-n4cnc(C)c4)c(OC)c3)nc21` has an IC50 of 12 nM.
`COc1cc(/C=C/c2nc3n(n2)CCC[C@@H]3c2ccc(C(F)(F)F)cc2)ccc1-n1cnc(C)c1` showed an IC50 of 31 nM.
`CCCCCCCCCCn1c2ccc(Cl)cc2c2ccc(C(C)C(=O)O)cc21` (centres undefined) gave an IC50 of 2900 nM.
With `COc1cc(Nc2nc3c(c(Cc4ccccc4)n2)CN(CCO)CC3)ccc1-n1cnc(C)c1` the IC50 was 25 nM.
`COc1cc(Nc2nc3c(c(COC4CCCC4)n2)COCC3)ccc1-n1cnc(C)c1` gave an IC50 of 22 nM.
In the case of `CC(C)CC(C(=O)O)c1cc(-c2ccc(C(F)(F)F)cc2)cc(N(C)c2cc(F)cc(F)c2)c1` (centres undefined), the IC50 is reported as 450 nM.
`COc1cc(Nc2nc3n(n2)CCCC[C@@H]3c2ccc(OCC(F)(F)F)cc2)ccc1-n1cnc(Cl)c1` showed an IC50 of 10 nM.
